“Also recorded” adds a separate entry of the source.
Key:
head and neck tumor B = assay: Quantitative zymography (QZ) assay, patient-derived tumor sample; design: species or system human (patient-derived); settings: 20 μg/mL, 37° C, 48 hours
Protocol: (§1) Protease activities in patient-derived tumor samples were evaluated using the quantitative zymography (QZ) assay. […] Tumor tissue samples from two head and neck cancer patients and one triple negative breast cancer (TNBC) patient were analyzed utilizing activatable antibodies of the present disclosure with the CM 6006 (SEQ ID NO: 7).
(§2) The protease activity in the tumor sections of 12 μm thickness was assessed. […] An equal volume of AF647-labeled c225 activatable antibodies prepared at 40 μg/mL in QZ buffer were then added directly onto the tissue containing the buffer to form a mixture and incubated at a final concentration of 20 μg/mL in a humidified chamber at 37° C. for 48 hours.
(§3) Following 48 hours of incubation, supernatants were collected from each incubated mixture and transferred into a well of a 96-well PCR plate for assay by capillary electrophoresis. Each supernatant sample was mixed with Pico Sample Buffer (Perkin Elmer) containing 2-beta-mercaptoethanol at four parts sample and one part of Pico Sample Buffer and then heated at 95° C. for 10 minutes. The composition of each supernatant sample was then assessed using the LabChip GXII Touch (Perkin Elmer) with the HT Pico Protein Express 100 protocol (Perkin Elmer). Protein Express Assay LabChips (Perkin Elmer #760499) were set up using the protocol of the Protein Pico Assay Reagent Kit (Perkin Elmer #760498).

TNBC tumor = assay: as above; design: species or system human (patient-derived); settings: 20 μg/mL, 37° C, 48 hours
Protocol: as §1, §2, §3

head and neck tumor A = assay: as above; design: species or system human (patient-derived); settings: 20 μg/mL, 37° C, 48 hours
Protocol: as §1, §2, §3

MT-SP1 [1] = assay: In vitro cleavability of activatable antibodies by MT-SP1 (capillary electrophoresis); type: biochemical, human; settings: role: substrate; for Cleavability (%) MT-SP1 (1.5h) / Cleavability (%) MT-SP1 (4 h): 500 nM activatable antibody, 37° C, pH 7.4; for Cleavability (%) MT-SP1 (1.5h): 10 nM MT-SP1, 1.5 h; for Cleavability (%) MT-SP1 (4 h): 10 nM MT-SP1, 4 h; for extent of cleavage by MT-SP1 (matriptase) vs control CM 2001, in words: compared to control CM 2001
plasmin = assay: In vitro cleavability of activatable antibodies by plasmin (capillary electrophoresis); type: biochemical, human; design: key to Cleavability (%) Plasmin (4 h): “—” indicates below limit of quantification; settings: role: substrate; for Cleavability (%) Plasmin (4 h): 500 nM activatable antibody, 10 nM plasmin, 37° C; for extent of cleavage by plasmin vs control CM 2001, in words: 4 h, compared to control CM 2001
TMPRSS11 = assay: In vitro cleavability of activatable antibodies by TMPRSS11 (capillary electrophoresis); type: biochemical, human; settings: role: substrate; for Cleavability (%) TMPRSS11 (4 h): 500 nM activatable antibody, 10 nM TMPRSS11D, 37° C, pH 7.4; for extent of cleavage by TMPRSS11 vs control CM 2001, in words: 4 h, compared to control CM 2001
MT-SP1 [2] = assay: Cleavability kinetics (kcat/KM) of CMs in activatable antibodies with MT-SP1; type: biochemical, human; settings: role: substrate; compared to control CMs 2001 and 0001
[3] = In vivo stability of activatable antibodies in mice (cleaved activatable antibody in plasma); settings: 10 mg/kg intraperitoneal; for In Vivo % Activation (nu/nu, day 7): day 7, plasma; for in vivo stability vs control, in words: nu/nu mice, day 7, compared to control CM 2001
[4] = tested on: H292 (human lung cancer cell line) xenograft tumors; assay: Intra-tumoral activation assay in H292 xenograft tumors; type: in vivo, human tumor cells in female nu/nu mice; settings: tumors collected 7 days after dosing, 9 mg/kg intraperitoneal
Protocol: (§4) In this study, H292 (human lung cancer-derived cell line) subcutaneous xenograft tumors in female nu/nu mice of 6-8 weeks of age were grown to an average volume of 117-215 mm^3. […] The mice were then randomized into groups of 8 mice each and each group was dosed intraperitoneally on day 1 with 9 mg/kg of the indicated test article.
Tumors were collected from the mice 7 days after dosing. The tumor tissue was lysed with immunoprecipitation buffer (Pierce) containing HALT protease inhibitor cocktail (Thermo Fisher) and EDTA and lysed using the Barocycler (Pressure Bioscience).

[5] = tested on: H292 (human lung cancer cell line) xenograft tumors; assay: In vivo efficacy in mouse H292 xenograft model; design: species or system human tumor cells in female nu/nu mice; settings: 9 mg/kg intraperitoneal on day 1; nu/nu mice
Protocol: The study provided herein evaluates the in vivo efficacy of activatable antibodies of the present disclosure with CM 6006 (SEQ ID NO: 7) using a mouse H292 (human lung cancer cell line) xenograft model.
as §4

[6] = tested on: human bone marrow aspirates; assay: In situ stability in human bone marrow aspirates; settings: 20 μg/mL, 37° C, 21 or 24 hours, N=2 donors, normalized to CM 2001
Protocol: The study provided herein evaluates the in situ stability of activatable antibodies of the present disclosure with the CM 6006 (SEQ ID NO: 7) by human bone marrow aspirates. Fresh human bone marrow aspirates from healthy donors were purchased from Stemcell Technology Inc. (Catalog No. 70502) and AllCells Inc. and were processed to lyse red blood cells and washed 5 times with buffer or serum-free media. […] An equal volume of AF647-labeled c225 activatable antibodies prepared at 40 μg/mL in serum-free RPMI media were then added to form a mixture and incubated at a final concentration of 20 μg/mL at 37° C. for 21 or 24 hours. Cells were pelleted through centrifugation for 5 min at 300×g. Supernatants were collected from each incubated mixture and transferred into a well of a 96-well PCR plate for assay by capillary electrophoresis. Each supernatant sample was mixed with Pico Sample Buffer (Perkin Elmer) containing 2-beta-mercaptoethanol at four parts sample and one part of Pico Sample Buffer and then heated at 95° C. for 10 minutes. Substrate cleavage was measured by capillary electrophoresis using a LabChip® GXII Touch™ system (Perkin Elmer) with the HT Pico Protein Express 100 protocol (Perkin Elmer). Protein Express Assay LabChips (Perkin Elmer #760499) were set up using the protocol of the Protein Pico Assay Reagent Kit (Perkin Elmer #760498).

Substance	light chain (LC) activation, in words (head and neck tumor B)	light chain (LC) activation, in words (TNBC tumor)	light chain (LC) activation, in words (head and neck tumor A)	Cleavability (%) MT-SP1 (1.5h) (MT-SP1 [1]) [%]	Cleavability (%) MT-SP1 (4 h) (MT-SP1 [1]) [%]	extent of cleavage by MT-SP1 (matriptase) vs control CM 2001, in words (MT-SP1 [1])	Cleavability (%) Plasmin (4 h) (plasmin; pH 7.4) [%]	extent of cleavage by plasmin vs control CM 2001, in words (plasmin)	Cleavability (%) TMPRSS11 (4 h) (TMPRSS11) [%]	extent of cleavage by TMPRSS11 vs control CM 2001, in words (TMPRSS11)	cleavability from kcat/KM results vs control CMs, in words (MT-SP1 [2])	In Vivo % Activation (nu/nu, day 7) [3] [%]	in vivo stability vs control, in words [3]	Cleavability (%) Plasmin (4 h) (plasmin; below limit of quantification)	cleavability percentage for MT-SP1 (MT-SP1 [1]; 1.5 h, lower bound stated in text)	intra-tumoral activation, in words [4]	in vivo efficacy (tumor volume), in words [5]	resistance to cleavage in situ in bone marrow, in words [6]
APRSALAHGLF [compound 5007, reference compound]	Comparable levels of LC activation	Comparable levels of LC activation	Comparable levels of LC activation															
HQSRS [compound 6001]				56.9	100.0	substantially cleaved by MT-SP1; also recorded: to a greater extent than the control CM 2001	11.1	to a greater extent than the control CM 2001	100.0	to a greater extent than the control CM 2001	higher cleavability by at least MT-SP1 than control CMs 2001 (SEQ ID NO: 78) and 0001 (SEQ ID NO: 77)	24.2	higher in vivo stability than the activatable antibody with the control CM 2001					
ISSGLLSGRSDNH [compound 2001, reference compound]				10.9	19.4				9.8			32.1		—				
LSGRSDNH [compound 0001, reference compound]												20						
SDHQSRS [compound 6006]	Comparable levels of LC activation	Increased LC activation is observed in the activatable antibody with CM 6006 (SEQ ID NO: 7) compared to the activatable antibody with the control CM 3001; also recorded: Comparable levels of LC activation	Increased LC activation is observed in the activatable antibody with CM 6006 (SEQ ID NO: 7) compared to the activatable antibody with the control CM 3001; also recorded: Comparable levels of LC activation	33.1	74.1	substantially cleaved by MT-SP1; also recorded: to a greater extent than the control CM 2001	15.1	to a greater extent than the control CM 2001	100.0	to a greater extent than the control CM 2001		18.4	higher in vivo stability than the activatable antibody with the control CM 2001		greater than 30%	cleaved by proteases present in the tumor resulting in activation of the antibody	in vivo efficacy that is comparable with the activatable antibody with the control CM 2001 (SEQ ID NO: 78) and similar to cetuximab	resistance to cleavage in situ in the bone marrow as compared to activatable antibodies with control CMs 2001 (SEQ ID NO: 78), 5007 (APRSALAHGLE; SEQ ID NO: 80) (WO2020118109) and 3001

From patent US20260327317A1, “PROTEASE-CLEAVABLE MOIETIES AND METHODS OF USE THEREOF” (CytomX Therapeutics, Inc., priority 2022, published 2026)
